Assay results taken from patent US7192906B2, “Substituted pyrazole derivatives, production process thereof, and herbicide compositions containing the derivatives” (SDS Biotech K.K., priority 2001, dated 2007).

Assays:
Format in all cases: in vivo
[1] = test system: wheat (Triticum aestivum); assay: Test Example 2 upland soil treatment, crop phytotoxicity; details: Table 5, upland soil treatment, index 0-5
Method in brief: (§1)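 Visual 0–5 grading of herbicidal effect or phytotoxicity, made 21 days after a single pre-emergence soil-surface application at 1 kg a.i./ha.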

soybean (Glycine max) [2] = assay: as above; details: Table 5, upland soil treatment, index 0-5
Method in brief: as §1

Setaria viridis [3] = assay: Test Example 2 upland soil treatment; details: Table 5, upland soil treatment, index 0-5
Method in brief: as §1

Digitaria adscendens [4] = assay: Test Example 2 upland soil treatment; details: Table 5, upland soil treatment, index 0-5
Method in brief: as §1

Stellaria media [5] = assay: Test Example 2 upland soil treatment; details: Table 5, upland soil treatment, index 0-5
Method in brief: as §1

Chenopodium album [6] = assay: Test Example 2 upland soil treatment; details: Table 5, upland soil treatment, index 0-5
Method in brief: as §1

Ammannia multiflora = assay: Test Example 3 paddy field treatment; details: active ingredient 1 kg per hectare, index 0-5
Method in brief: (§2)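 Weed seeds sown in puddled paddy soil under 4 cm water, with two-leaf Koshihikari rice transplanted; 10 days later a wettable powder was applied to the water surface at 1 kg active ingredient/ha. Scored 21 days after application on a 0–5 scale (0 = <10%, 5 = ≥90% herbicidal effect or phytotoxicity).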

Scirpus juncoides = assay: Test Example 3 paddy field treatment; details: active ingredient 1 kg per hectare, index 0-5
Method in brief: as §2

Echinochloa crusgalli = assay: Test Example 3 paddy field treatment; details: active ingredient 1 kg per hectare, index 0-5
Method in brief: as §2

Monochoria vaginalis = assay: Test Example 3 paddy field treatment; details: active ingredient 1 kg per hectare, index 0-5
Method in brief: as §2

[7] = test system: wheat (Triticum aestivum); assay: Test Example 1 upland field foliage treatment, crop phytotoxicity; details: Table 4, upland field foliage treatment, index 0-5
Method in brief: (§3)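 Scores are visual 0–5 ratings of herbicidal effect or crop injury (0: under 10%; 5: 90% or more) taken 21 days after treatment. Plants grew from seed in upland soil for 14 days, then foliage received the compound as a water-diluted wettable powder at 1 kg/ha active ingredient.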

soybean (Glycine max) [8] = assay: as above; details: Table 4, upland field foliage treatment, index 0-5
Method in brief: as §3

Rice (Oryza sativa) = assay: Test Example 3 paddy field treatment, crop phytotoxicity; details: active ingredient 1 kg per hectare, index 0-5; for Herbicidal activity (phytotoxicity) OS: Table 6, paddy field treatment, transplanted rice, 21st day after dropping
Method in brief: as §2

Setaria viridis [9] = assay: Test Example 1 upland field foliage treatment; details: Table 4, upland field foliage treatment, index 0-5
Method in brief: as §3

Digitaria adscendens [10] = assay: Test Example 1 upland field foliage treatment; details: Table 4, upland field foliage treatment, index 0-5
Method in brief: as §3

Stellaria media [11] = assay: Test Example 1 upland field foliage treatment; details: Table 4, upland field foliage treatment, index 0-5
Method in brief: as §3

Chenopodium album [12] = assay: Test Example 1 upland field foliage treatment; details: Table 4, upland field foliage treatment, index 0-5
Method in brief: as §3

[13] = paddy field treatment, wettable powder, 21st day after the dropping
[14] = Table 6, paddy field treatment, 21st day after dropping

SMILES | Herbicidal activity (phytotoxicity) TA: Wheat (Triticum aestivum) [1] | Herbicidal activity (phytotoxicity) GM: Soybean (Glycine max) (soybean (Glycine max) [2]) | Herbicidal activity SV: Setaria viridis (Setaria viridis [3]) | Herbicidal activity DA: Digitaria adscendens (Digitaria adscendens [4]) | Herbicidal activity SM: Stellaria media (Stellaria media [5]) | Herbicidal activity CA: Chenopodium album (Chenopodium album [6]) | Herbicidal activity (phytotoxicity) TA: Wheat (Triticum aestivum) [7] | Herbicidal activity (phytotoxicity) GM: Soybean (Glycine max) (soybean (Glycine max) [8]) | Herbicidal activity SV: Setaria viridis (Setaria viridis [9]) | Herbicidal activity DA: Digitaria adscendens (Digitaria adscendens [10]) | Herbicidal activity SM: Stellaria media (Stellaria media [11]) | Herbicidal activity CA: Chenopodium album (Chenopodium album [12]) | Herbicidal activity AM (Ammannia multiflora; [14]) | Herbicidal activity SJ (Scirpus juncoides; [14]) | Herbicidal activity EC (Echinochloa crusgalli; [14]) | Herbicidal activity MV (Monochoria vaginalis; [14]) | Herbicidal activity (phytotoxicity) OS (Rice (Oryza sativa)) | further results
CON=C(Cn1cc(C)c(-c2ccccc2)n1)C(=O)NC1CCCC1 [Compound 23] | 0 (herbicidal effect of not less than 0% and less than 10%, or phytotoxicity of 0% or more and less than 10%) | 0 (herbicidal effect of not less than 0% and less than 10%, or phytotoxicity of 0% or more and less than 10%) | 4 (herbicidal effect of not less than 70% and less than 90%, or phytotoxicity of 70% or more and less than 90%) | 4 (herbicidal effect of not less than 70% and less than 90%, or phytotoxicity of 70% or more and less than 90%) | 4 (herbicidal effect of not less than 70% and less than 90%, or phytotoxicity of 70% or more and less than 90%) | 5 (herbicidal effect of not less than 90%, or phytotoxicity of 90% or more) | 0 (herbicidal effect of not less than 0% and less than 10%, or phytotoxicity of 0% or more and less than 10%) | 0 (herbicidal effect of not less than 0% and less than 10%, or phytotoxicity of 0% or more and less than 10%) | 3 (herbicidal effect of not less than 50% and less than 70%, or phytotoxicity of 50% or more and less than 70%) | 3 (herbicidal effect of not less than 50% and less than 70%, or phytotoxicity of 50% or more and less than 70%) | 4 (herbicidal effect of not less than 70% and less than 90%, or phytotoxicity of 70% or more and less than 90%) | 4 (herbicidal effect of not less than 70% and less than 90%, or phytotoxicity of 70% or more and less than 90%) | – | – | – | – | – | Herbicidal activity AM (Ammannia multiflora; [13]): 5 (herbicidal effect of not less than 90%, or phytotoxicity of 90% or more); Herbicidal activity SJ (Scirpus juncoides; [13]): 4 (herbicidal effect of not less than 70% and less than 90%, or phytotoxicity of 70% or more and less than 90%); Herbicidal activity EC (Echinochloa crusgalli; [13]): 4 (herbicidal effect of not less than 70% and less than 90%, or phytotoxicity of 70% or more and less than 90%); Herbicidal activity MV (Monochoria vaginalis; [13]): 5 (herbicidal effect of not less than 90%, or phytotoxicity of 90% or more); Herbicidal activity OS (phytotoxicity to rice) (Rice (Oryza sativa); paddy field treatment, transplanted rice Koshihikari, wettable powder, 21st day after the dropping): 0 (herbicidal effect of not less than 0% and less than 10%, or phytotoxicity of 0% or more and less than 10%)
CNC(=O)C(Cn1cc(C)c(-c2ccccc2)n1)=NOCF [Compound 103] | 0 (herbicidal effect of not less than 0% and less than 10%, or phytotoxicity of 0% or more and less than 10%) | 0 (herbicidal effect of not less than 0% and less than 10%, or phytotoxicity of 0% or more and less than 10%) | 4 (herbicidal effect of not less than 70% and less than 90%, or phytotoxicity of 70% or more and less than 90%) | 5 (herbicidal effect of not less than 90%, or phytotoxicity of 90% or more) | 5 (herbicidal effect of not less than 90%, or phytotoxicity of 90% or more) | 5 (herbicidal effect of not less than 90%, or phytotoxicity of 90% or more) | 0 (herbicidal effect of not less than 0% and less than 10%, or phytotoxicity of 0% or more and less than 10%) | 0 (herbicidal effect of not less than 0% and less than 10%, or phytotoxicity of 0% or more and less than 10%) | 3 (herbicidal effect of not less than 50% and less than 70%, or phytotoxicity of 50% or more and less than 70%) | 4 (herbicidal effect of not less than 70% and less than 90%, or phytotoxicity of 70% or more and less than 90%) | 5 (herbicidal effect of not less than 90%, or phytotoxicity of 90% or more) | 5 (herbicidal effect of not less than 90%, or phytotoxicity of 90% or more) | 5 (herbicidal effect of not less than 90%, or phytotoxicity of 90% or more) | 5 (herbicidal effect of not less than 90%, or phytotoxicity of 90% or more) | 5 (herbicidal effect of not less than 90%, or phytotoxicity of 90% or more) | 5 (herbicidal effect of not less than 90%, or phytotoxicity of 90% or more) | 0 (herbicidal effect of not less than 0% and less than 10%, or phytotoxicity of 0% or more and less than 10%) | –
CNC(=O)C(Cn1cc(C)c(-c2cc(C(F)(F)F)ccc2F)n1)=NOC [Compound 86] | 0 (herbicidal effect of not less than 0% and less than 10%, or phytotoxicity of 0% or more and less than 10%) | 1 (herbicidal effect of not less than 10% and less than 30%, or phytotoxicity of 10% or more and less than 30%) | 4 (herbicidal effect of not less than 70% and less than 90%, or phytotoxicity of 70% or more and less than 90%) | 5 (herbicidal effect of not less than 90%, or phytotoxicity of 90% or more) | 5 (herbicidal effect of not less than 90%, or phytotoxicity of 90% or more) | 5 (herbicidal effect of not less than 90%, or phytotoxicity of 90% or more) | 0 (herbicidal effect of not less than 0% and less than 10%, or phytotoxicity of 0% or more and less than 10%) | 0 (herbicidal effect of not less than 0% and less than 10%, or phytotoxicity of 0% or more and less than 10%) | 3 (herbicidal effect of not less than 50% and less than 70%, or phytotoxicity of 50% or more and less than 70%) | 5 (herbicidal effect of not less than 90%, or phytotoxicity of 90% or more) | 4 (herbicidal effect of not less than 70% and less than 90%, or phytotoxicity of 70% or more and less than 90%) | 4 (herbicidal effect of not less than 70% and less than 90%, or phytotoxicity of 70% or more and less than 90%) | 5 (herbicidal effect of not less than 90%, or phytotoxicity of 90% or more) | 4 (herbicidal effect of not less than 70% and less than 90%, or phytotoxicity of 70% or more and less than 90%) | 5 (herbicidal effect of not less than 90%, or phytotoxicity of 90% or more) | 5 (herbicidal effect of not less than 90%, or phytotoxicity of 90% or more) | 0 (herbicidal effect of not less than 0% and less than 10%, or phytotoxicity of 0% or more and less than 10%) | –
